From patent US8937038B2, “Composition containing peptide ligand that bonds with CXCR2 for treating infective and inflammatory diseases” (priority 2010, dated 2015)

Assays:
CLP mice [1] = assay: Survival of CLP sepsis mice; assay type: in vivo, mouse
Experimental: Male WT ICR mice were used to evaluate a therapeutic effect of Ac-PGP. IFN-γ-deficient mice (kindly provided by Y. K. Kim at the Pohang University of Science and Technology, Pohang, Republic of Korea) were used for mechanism study. All Examples in which animals were used were performed according to the instructions with permission of the Institutional Review Board (IRB) for the care and management of laboratory animals at Dong-A University. In the case of the CLP, mice were anesthetized with pentothal sodium (50 mg/kg, intraperitoneally injected), and abdomen of each mouse was cut along a central cutting line to expose an appendix. Then, an ileocecal valve of the appendix was tied up, both surfaces of the ileocecal valve were punctured twice with a 22-gauge needle (or punctured once to measure a production amount of cytokines), and the abdomen was sutured. Sham CLP mice were treated in the same manner as described above, except that CLP of the appendix was not performed. A survival rate of the mice was monitored every day for 10 days. In the case of the LPS or E. coli model, E. coli and LPS were intraperitoneally injected at concentrations of 1×10^9 cells/mouse and 60 mg/kg, respectively. A survival rate of the mice was monitored once a day for 10 days.
An experimental therapeutic effect of Ac-PGP on sepsis was examined in CLP using albino Institute of Cancer Research (ICR) mice. Survival of the mice was monitored for 10 days after CLP. On the second day after the CLP, only 20% of untreated WT mice survived (FIG. 1).
The Ac-PGP was evaluated to determine whether the antiseptic activity of Ac-PGP served through CXCR2 that was a known receptor of Ac-PGP.

CLP mice [2] = assay: Histological analysis (hematoxylin and eosin) of major internal organs of CLP mice; assay type: in vivo, mouse; conditions: FIG. 7
Experimental: A mouse was subjected to CLP surgery, and after 2 hours, PBS or Ac-PGP was injected at a dose of 17.5 mg/kg to the mouse. After the CLP surgery, the mouse was sacrificed within 24 hours, and the lung of the mouse was fixed, microtomed, and stained with hematoxylin and eosin so as to perform morphological analysis.
(§1) The defunctionalization of the major internal organs such as lungs was associated with the mortality after sepsis. A morphological change was observed by performing hematoxylin and eosin staining. […] Liver tissues from the CLP mice were necrotized to a higher extent, but the necrosis of the liver tissues was decreased by administration of Ac-PGP. […] Most of the apoptosis in the thymus or spleen of a CLP mouse was caused in the cortex of the thymus or spleen in which immature cells were populated. When compared with those of the sham or Ac-PGP mice, an important morphological change in apoptotic cells of the CLP mice is that small compact pyknosis containing multiple nuclear fragments were present in apoptotic lymphocytes (FIG. 7). […] The apoptosis of immune cells was also accompanied with sepsis.

CLP mice [3] = assay: Cytokines in peritoneal fluid after CLP (ELISA); assay type: in vivo, mouse
Experimental: To measure a production amount of cytokines induced by CLP in a peritoneal lavage fluid, mice were provided with Ac-PGP for 2 hours, 14 hours, 26 hours, and 38 hours after CLP. A peritoneal lavage fluid was collected within various time zones between 4 and 72 hours after the CLP, and cytokines present in the peritoneal fluid was measured using ELISA (BD Biosciences Pharmingen).
An effect of the Ac-PGP on a pro-inflammatory cytokine in a peritoneal fluid by CLP was determined from 4 to 72 hours after the CLP. The CLP induced a remarkable increase in levels of pro-inflammatory cytokines (TNF-α, IL-1β and IL-6) within 24 hours (FIGS. 14 to 16). Injection of the Ac-PGP in a sepsis model by the CLP induced a remarkable change in levels of the cytokines. […] To evaluate an effect of the Ac-PGP on production of the pro-inflammatory cytokines by the LPS, in vitro production of TNF-α and IL-6 by the mouse splenocytes was evaluated. Direct release of the TNF-α and IL-6 from the mouse splenocytes by the LPS was suppressed by in vitro treatment with the Ac-PGP (FIGS. 17 and 18).
An effect of the Ac-PGP on levels of Th1 cytokines by CLP in a peritoneal fluid was also determined from 4 to 72 hours after the CLP.

human neutrophils = assay: Cytokine production by LPS-stimulated human neutrophils; assay type: cell-based; conditions: human neutrophils stimulated with LPS
Description: All kinds of protocols used in human beings were approved by the Institutional Review Board (IRB) at Dong-A University Hospital, and prior consents were obtained from all blood donors. Peripheral blood was collected from healthy donors, and human peripheral monocytes were separated using a Histopaque-1077 gradient. Neutrophils were separated through methods such as dextran precipitation of red blood cell, hypotonic lysis, and usage of lymphocyte isolation medium gradient, as known in the related art (Bae, Y. S. et al. Blood 97, 2854-2862(2001)). The separated human leukocytes were used immediately.
Next, an effect of the Ac-PGP on production of cytokines by human neutrophils and PBMCs was examined. […] A human CXCR2 chemokine agonist CXCL8 had few effects on production of TNF-α or IFN-γ stimulated with LPS (FIG. 28 to FIG. 31). Therefore, the Ac-PGP could improve both antiseptic activities in leukocytes derived from human beings and mice.

CLP mice [4] = assay: Apoptosis of immune cells (TUNEL) in CLP mice; assay type: in vivo, mouse
Experimental: First, a tissue embedded in paraffin was deparaffinized using a typical histological protocol, and performed digoxigenin-dUTP nick end labeling (TUNEL) analysis. Sections were permeated into the Triton X-100 at 4° C. for 2 minutes, and the sections were flooded in terminal deoxynucleotidyl transferase (TdT) and a TUNEL reagent at 37° C. for 60 minutes. A percentage of apoptotic cells (TUNEL-positive cells) was determined by counting 500 splenocytes under an optical microscope. Also, the tissue embedded in paraffin was deparaffinized using a typical histological protocol, and immunohistochemical analysis was performed on the microtomed sections of caspase-3 (Wang J. et al. 2001 Proc. Natl. Acad. Sci. USA 98:4038-43).
as §1
The apoptosis of immune cells is associated with the mortality on sepsis. Here, the CLP was proven to remarkably increase apoptosis of splenocytes (FIG. 22). […] Apoptosis of lymphocytes was induced by activation of some major caspases including caspase-3. Therefore, not only the effect of Ac-PGP on activation of caspase-3 but also the effect of CLP activation by caspase-3 were examined (FIG. 23).

Q: For acetylated-Pro-Gly-Pro [Ac-PGP], which survival rate (CLP mice [1]; 17.5 mg/kg injected 3 or 4 times from 2 hours after CLP at an interval of 12 hours, FIG. 2) is on record?
A: highly increased

Q: And the survival rate (CLP mice [1]; CLP mice pretreated with CXCR2-selective antagonist SB225002, FIG. 5)?
A: could not improve the survival rate

Q: And the survival rate (CLP mice [1]; CXCR2-deficient sepsis mice, FIG. 6)?
A: could not improve a survival rate

Q: What about the survival rate (CLP mice [1]; administered 4 to 5 times at 17.5 mg/kg) of the same substance?
A: highest increase in survival rate

Q: And the “therapeutic effect (survival)” value (CLP mice [1]; injected 10 hours after the CLP, FIG. 3)?
A: a therapeutic effect was still exhibited

Q: What about the “survival of the mice” value (CLP mice [1]; injection of 7.5, 12.5 or 17.5 mg/kg, compared with PBS-injected control, FIG. 1) of the same substance?
A: remarkably increased survival of the mice

Q: And the survival rate (CLP mice [1]; subcutaneous administration 2 hours after CLP, various doses, monitored 10 days, FIG. 1)?
A: remarkably increased the survival rate in a dose-dependent manner

Q: What about the “necrosis of the liver tissues” value (CLP mice [2]; 17.5 mg/kg 2 hours after CLP) of the same substance?
A: decreased

Q: And the “formation of alveolar congestion and thrombotic lesions in the lungs” value (CLP mice [2])?
A: remarkably suppressed

Q: What about the “level of TNF-α in peritoneal fluid” value (CLP mice [3]; 4 to 72 hours after CLP, FIG. 14) of the same substance?
A: induced a decrease in levels

Q: And the “level of IL-1β in peritoneal fluid” value (CLP mice [3]; 4 to 72 hours after CLP, FIG. 15)?
A: induced a decrease in levels

Q: What about the “level of IL-6 in peritoneal fluid” value (CLP mice [3]; 4 to 72 hours after CLP, FIG. 16) of the same substance?
A: induced a decrease in levels

Q: What about the “level of IFN-γ in peritoneal fluid” value (CLP mice [3]; 4 to 72 hours after CLP, FIG. 19) of the same substance?
A: remarkably increased

Q: What about the “level of IL-12p70 in peritoneal fluid” value (CLP mice [3]; 4 to 72 hours after CLP, FIG. 20) of the same substance?
A: remarkably increased

Q: What about the “level of IL-2 in peritoneal fluid” value (CLP mice [3]; 4 to 72 hours after CLP, FIG. 21) of the same substance?
A: remarkably increased

Q: And the “level of IFN-γ in the peritoneal fluid” value (CLP mice [3]; 24 hours after the CLP)?
A: improved levels

Q: And the “level of IL-12 in the peritoneal fluid” value (CLP mice [3]; 24 hours after the CLP)?
A: improved levels

Q: And the “production of TNF-α” value (human neutrophils; FIG. 28)?
A: remarkably suppressed

Q: What about the “production of IFN-γ” value (human neutrophils; FIG. 30) of the same substance?
A: remarkably improved

Q: What about the “apoptosis of the immune cells in the spleen” value (CLP mice [4]; CLP mice, FIG. 8) of the same substance?
A: remarkably suppressed

Q: What about the “apoptosis of the immune cells in the thymus” value (CLP mice [4]; CLP mice, FIG. 9) of the same substance?
A: remarkably suppressed

Q: And the apoptosis of splenocytes (CLP mice [4]; CLP mice, FIG. 22)?
A: remarkably suppressed the apoptosis of splenocytes

Q: And the “inhibitory effect of the apoptosis of splenocytes by Ac-PGP” value (CLP mice [4]; IFN-γ-deficient CLP mice, FIG. 22)?
A: remarkably relieved
